Measurements reported in paper PMC4849550 (ACS chemical biology, 2016).

Target: Csd4 (Helicobacter pylori, UniProt B5ZAD9)
Test: crystal structure at […] Å
Type: biochemical

CC(=O)N[C@H](CCP(=O)(O)CC(CCC[C@@H](N)C(=O)O)C(=O)O)C(=O)O (mixture of isomers) [compound 1, inhibitor 1]
Ki: 1500 ± 300 nM
